US8022043B2, “Ceramide derivatives as modulators of immunity and autoimmunity” (Albert Einstein College of Medicine of Yeshiva University, priority 2004, dated 2011)
pEC50: −log10 of the molar value.

How the values were obtained:
NOD mice = conditions: twice weekly injection from 4 weeks of age, reduction from 75%; cited from earlier work
NK T hybridoma DN3A4.1-2 = assay: Upregulation of CD40L (CD154), FACS; assay type: cell-based, mouse; conditions: 0.5 uM glycolipid, 18 hours, RMA-S/CD1d cells
Description: The upregulation of CD40L by ceramide-like glycolipids reported in FIG. 11 were obtained by incubating NK T hybridoma DN3A4.1-2 with RMA-S/CD1d cells at a ratio of 2:1 in the presence of 0.5 uM of ceramide-like glycolipid for 18 hours. Cells were then resuspended and labeled with mAbs specific for CD5 and CD40L. Levels of CD40L were determined by FACS analysis of the population gated for CD5 staining.

NZB/W-F1 mice = assay: SLE in NZB/W-F1 mice; assay type: in vivo
iNKT cells = assay: In vitro cytokine modulation, murine cell assay system; assay type: cell-based
Text: The term iNKT cells, as used herein, mean the specific subset of CD1d-dependent T cells that expresses the invariant TCRα chain rearrangement consisting of Vα14-Jα18 in mice, and Vα24-Jα18 in humans. These cells are uniformly reactive to α-galactosylceramides presented by CD1d. These cells are also referred to as “Type 1” NKT cells, and the distinction between the different types of NKT cells and the nomenclature relating to this are summarized in the publication by Godfrey et al., Nat Rev Immunol. 2004 March; 4(3):231-7. Methods for determining cytokine production by iNKT cells in response to CD1d-presented glycolipids for determination of strong or weak agonist activity are described in Yu K O A, Im J S, Molano A, Dutronc Y, Illarionov P A, Forestier C, Fujiwara N, Arias I, Miyake S, Yamamura T, Chang Y-T, Besra G S, Porcelli S A, Modulation of CD1d-restricted NKT cell responses using N-acyl variants of α-galactosylceramides, Proc. Nat. Acad. Sci. (USA), 102:3383-8 (2005), see also Godfrey D I et al., Nat Rev Immunol. 2004 March; 4(3):231-7.

[1] = test system: Bulk splenocytes from C57BL/6 mice; assay: Splenocyte proliferation assay (3H-thymidine incorporation); assay type: cell-based; conditions: Mus musculus, concentration giving 50% maximal response in proliferation of splenocyte cultures
C57BL/6 mice = assay: Serum IL-4 and IFNγ after a single i.p. injection; assay type: in vivo; conditions: 20 hours after single i.p. injection of 4.8 nanomoles
Description: Serum levels of L-4 and IFNγ after a single injection of DB01-1, DB03-4, or DB03-5 are shown. C57BL/6 mice (11-13 weeks old) were given a single i.p. injection of 4.8 nanomoles of the compounds or phosphate buffered saline (PBS)/vehicle control. Serum cytokine levels were measured 2 and 20 hours later by capture ELISA. Bars show means of three mice, with standard deviation. Note that DB01-1 has nearly identical structure to KRN7000 (C24 fatty acid as compared to C26) and has activity that is indistinguishable from KRN7000 in multiple bioassays. We use DB01-1 as a “KRN7000 mimic” because it has been synthesized by our group and is readily available for our studies, and KRN7000 was unavailable due to license restrictions.
A most intriguing property of KRN7000 analogues is that in some cases they may elicit immune responses that are qualitatively different from those that occur following stimulation with the parent compound. […] This selective activation of IL-4 production by NK T cells was proposed to be the basis for the enhanced therapeutic effects of OCH in the EAE model of central nervous system autoimmune disease. We have observed a similar in vivo effect on the nature of the NK T cell response using several of our ceramide-like glycolipids. […] These responses are similar to those seen for DB01-1, an analogue that is structurally almost identical to KRN7000 (C24 fatty acid instead of C26, otherwise identical) and indistinguishable in terms of its activity in our hands. […] This selective IL-4 induction is virtually identical to that reported for the OCH analogue, and thus illustrates the potential for amino substituted analogues of KRN7000 to induce qualitatively different immunomodulatory effects in vivo. The results reported in FIG. 9 were obtained by measuring serum levels of IL-4 and IFNγ after administering a single injection of […], DB03-4, or DB03-5 to C57BL/6 mice. C57BL/6 mice (11-13 weeks old) were given a single i.p. injection of 4.8 nanomoles of the ceramide-like glycolipids or PBS/vehicle control. Serum cytokine levels were measured 2 and 20 hours later by capture ELISA. Bars show means of three mice, with standard deviation.
For experiments involving in vivo treatment of mice with the ceramide-like glycolipids, the ceramide-like glycolipids were administered by i.p. or i.v. injection in 0.2 ml PBS+0.025% Tween-20, or in vehicle alone. A typical dose is about 4-5 nmoles per animal per injection. Representative references for administering an α-galactosyl ceramide to mice by i.p., i.v. or p.o. routes are S. Sharif et al., Activation of natural killer T cells by alpha-galactosylceramide treatment prevents the onset and recurrence of autoimmune Type 1 diabetes, Nat. Med., Sep. 7, 2001, (9):1057-62 and K. Miyamoto et al., A synthetic glycolipid prevents autoimmune encephalomyelitis by inducing TH2 bias of natural killer T cells, Nature. Oct. 4, 2001, 413(6855):5314.

[2] = test system: Bulk splenocytes from C57BL/6 mice; assay: Cytokine response of splenocyte cultures (IL-4 and IFNγ ELISA); assay type: cell-based; conditions: 500 nM glycolipid, 48 hours
Description: The cytokine response reported in Table 1 and FIG. 5C was determined by the following procedure: Bulk splenocytes from C57BL/6 mice were plated at 300,000 per well in 96-well flat-bottom tissue culture plates with ceramide-like glycolipids diluted to a concentration of 500 nM in 200 microliters complete medium. After 48 h at 37° C., 150 microliters of supernatant was removed for cytokine measurements. Supernatant levels of IL-4, and IFNγ were measured by standard enzyme-linked immunosorbent assay (ELISA), using capture and biotinylated detection antibody pairs (clones 11B11/BVD6-24G2-biotin, and R4-6A2/XMG1.2-biotin, respectively, from BD Pharmingen, San Diego, Calif.). […] Standards for IL-4 and IFNγ were from Peprotech (Rocky Hill, N.J.).

[3] = culture supernatant ELISA, ND = below the reliable level for detection

CCCCCCCCCCCCCCCCCCCCCCCCCC(=O)N[C@@H](CO[C@H]1O[C@H](CO)[C@H](O)[C@H](O)[C@H]1O)[C@H](O)[C@H](O)CCCCCCCCCCCCCC [KRN7000, (2S,3S,4R)-1-O-(α-D-galactopyranosyl)-N-hexacosanoyl-2-amino-1,3,4-octadecanetriol]
incidence of diabetes (NOD mice): approximately 5%

CCCCCCCCCCCCCCCCCCCCCCCC(=O)N[C@@H](CO[C@@H]1OC(C)[C@@H](O)[C@H](O)C1O)[C@H](O)[C@H](O)CCCCCCCCCCCCCC (some centres unmarked) [DB03-8]
CD40L expression (NK T hybridoma DN3A4.1-2): capable of inducing CD40L | effect on SLE (NZB/W-F1 mice): exacerbates SLE | agonist activity on iNKT cells (iNKT cells; in vitro): weak agonist | in vitro activity at modulating cytokines (iNKT cells; murine cell assay system): show in vitro activity

CCCCCCCCCCCCCCCCCCCCCCCC(=O)N[C@@H](COC1OC(CO)C(O)C(O)C1O)[C@H](O)[C@H](O)CCCCCCCCCCCCCC (some centres unmarked) [DB01-1]
pEC50 [1]: 7.20 | serum IFNγ response (C57BL/6 mice): strong IFNγ response | IL-4/IFNγ ratio divided by this ratio for DB01-1 (value in parentheses) [2]: 1.0 | ratio IL-4/IFNγ [2]: 0.026 | Cytokine Response IFNγ [2, 3]: 7.29 ng/mL | Cytokine Response IL-4 [2, 3]: 0.19 ng/mL
